Measurements from patent US20070066682A1, “Arylalkylamine vanadium (V) salts for the treatment and/or prevention of Diabetes mellitus” (priority 2005, published 2007).

Columns and labels:
Human SSAO = target: T1, Human SSAO (Homo sapiens, UniProt Q16853); test: SSAO activity, hydrogen peroxide production relative to benzylamine (human); type: biochemical; conditions: compound at 1 mM
T1 sequence (Q16853 1-763): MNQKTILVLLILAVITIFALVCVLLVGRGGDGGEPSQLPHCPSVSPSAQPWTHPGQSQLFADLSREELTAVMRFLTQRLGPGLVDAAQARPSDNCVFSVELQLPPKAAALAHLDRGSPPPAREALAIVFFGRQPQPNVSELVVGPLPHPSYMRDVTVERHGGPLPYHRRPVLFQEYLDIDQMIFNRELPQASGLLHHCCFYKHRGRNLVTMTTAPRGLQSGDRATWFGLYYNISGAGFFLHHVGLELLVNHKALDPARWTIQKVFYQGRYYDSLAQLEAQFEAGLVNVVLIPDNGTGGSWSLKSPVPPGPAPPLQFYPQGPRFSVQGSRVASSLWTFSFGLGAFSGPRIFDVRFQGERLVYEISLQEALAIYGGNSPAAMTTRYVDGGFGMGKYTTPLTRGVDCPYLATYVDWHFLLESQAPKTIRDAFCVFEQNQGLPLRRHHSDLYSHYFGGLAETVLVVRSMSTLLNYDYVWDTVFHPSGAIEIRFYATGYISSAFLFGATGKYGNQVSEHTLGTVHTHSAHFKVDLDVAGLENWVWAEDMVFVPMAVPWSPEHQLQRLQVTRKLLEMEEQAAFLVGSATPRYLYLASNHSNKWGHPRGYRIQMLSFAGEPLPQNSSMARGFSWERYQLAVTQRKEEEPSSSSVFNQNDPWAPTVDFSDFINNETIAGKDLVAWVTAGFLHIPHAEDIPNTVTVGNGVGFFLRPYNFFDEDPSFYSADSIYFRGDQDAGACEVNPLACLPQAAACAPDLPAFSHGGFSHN
Experimental: (§1) The continuous spectrophotometric detection of SSAO-dependent H2O2 production based on a peroxidase-coupled reaction was performed as previously described by Abella et al. (2004, Diabetologia 47: 429-438) and following the procedure described by Holt et al., (1997, Anal. Biochem. 244: 384-392).
(§2) Compounds listed in Table 1 were prepared according to the methods described above, purity was determined by HPLC at 220 nm, molecular weight calculated by mass spectrometer. Human and mouse SSAO activity was determined by detecting the production of hydrogene peroxide in the presence of the different compounds present at 1 mM for human and 100 μM for mice activity measurements. Compounds in Table 2″ were similarly assayed. Values are means of percentages relative to benzylamine-related hydrogen production. Kinetic Parameters for select compounds are set forth in Table 3 (Mouse SSAO) and Table 4 (Human SSAO).

mouse SSAO = target: T2, mouse SSAO (Mus musculus, UniProt O70423); test: SSAO activity, hydrogen peroxide production relative to benzylamine (mouse); type: biochemical; conditions: compound at 100 μM
T2 sequence (O70423 1-765): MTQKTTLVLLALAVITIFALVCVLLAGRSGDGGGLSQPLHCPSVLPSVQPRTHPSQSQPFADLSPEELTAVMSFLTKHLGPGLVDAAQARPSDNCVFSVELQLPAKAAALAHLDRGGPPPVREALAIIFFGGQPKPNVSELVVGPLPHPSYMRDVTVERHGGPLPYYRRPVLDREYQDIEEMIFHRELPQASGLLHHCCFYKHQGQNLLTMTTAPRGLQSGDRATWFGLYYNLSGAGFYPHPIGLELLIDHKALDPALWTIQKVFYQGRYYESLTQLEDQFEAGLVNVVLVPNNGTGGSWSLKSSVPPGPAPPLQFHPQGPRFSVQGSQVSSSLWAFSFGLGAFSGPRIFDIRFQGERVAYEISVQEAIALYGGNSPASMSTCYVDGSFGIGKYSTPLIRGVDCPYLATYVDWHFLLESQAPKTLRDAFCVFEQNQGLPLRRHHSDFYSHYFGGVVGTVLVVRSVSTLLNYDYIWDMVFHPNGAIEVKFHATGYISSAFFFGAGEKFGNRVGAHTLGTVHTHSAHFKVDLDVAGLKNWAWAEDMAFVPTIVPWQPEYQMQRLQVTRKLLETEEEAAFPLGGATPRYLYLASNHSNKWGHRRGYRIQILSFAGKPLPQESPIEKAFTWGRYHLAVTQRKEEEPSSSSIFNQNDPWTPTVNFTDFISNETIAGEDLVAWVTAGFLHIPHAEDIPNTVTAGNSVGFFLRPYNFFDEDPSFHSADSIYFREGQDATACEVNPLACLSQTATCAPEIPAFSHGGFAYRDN
Experimental: as §1, §2

Row | Structure (SMILES) | SSAO activity (% relative to benzylamine) Human (Human SSAO) [%] | SSAO activity (% relative to benzylamine) Mouse (mouse SSAO) [%]
1 | NCc1ccccc1 [Entry 1, Benzylamine, reference compound] | 100 | 100
2 | NCc1ccc(F)cc1 [Entry 3, (4-fluorophenyl)methanamine] | 31.70 | 77.20
3 | Cc1ccc(CN)cc1 [Entry 4, p-tolylmethanamine] | 0.00 | 0.00
4 | CCc1ccc(CN)cc1 [Entry 5] | 0.00 | 17.30
5 | CC(C)(C)c1ccc(CN)cc1 [Entry 6, (4-tert-butylphenyl)methanamine] | 0.00 | 1.00
6 | CC(C)c1ccc(CN)cc1 [Entry 7, (4-isopropylphenyl)methanamine] | 0.00 | 0.00
7 | NCc1ccc(C(F)(F)F)cc1 [Entry 8, (4-(trifluoromethyl)phenyl)methanamine] | 0.50 | 83.00
8 | NCc1ccc(OC(F)(F)F)cc1 [Entry 9, (4-(trifluoromethoxy)phenyl)methanamine] | 0.00 | 66.20
9 | COc1ccc(CN)c(OC)c1 [Entry 10, (2,4-dimethoxyphenyl)methanamine] | 0.00 | 0.00
10 | CCCCc1ccc(CN)cc1 [Entry 11, (4-butylphenyl)methanamine] | 0.00 | 27.00
11 | NCc1ccc(O)c(Br)c1 [Entry 13, 4-(aminomethyl)-2-bromophenol] | 0.00 | 0.00
12 | NCc1cccc([N+](=O)[O-])c1O [Entry 14, 2-(aminomethyl)-6-nitrophenol] | 0.11 | 5.47
13 | NCc1ccc(-c2ccccc2)cc1 [Entry 15, biphenyl-4-yl-methanamine] | 0.00 | 3.77
14 | Cc1ccc(CN)cc1F [Entry 16, (3-fluoro-4-methylphenyl)methanamine] | 7.07 | 33.49
15 | COc1cc(F)cc(CN)c1 [Entry 17, (3-fluoro-5-methoxyphenyl)methanamine] | 2.53 | 4.86
16 | COc1cccc(O)c1CN [Entry 19, 2-(aminomethyl)-3-methoxyphenol] | 0.00 | 0.00
17 | NCc1ccc(OCc2ccccc2)cc1 [Entry 20, (4-(benzyloxy)phenyl)methanamine] | 0.0 | 0.0
18 | NCc1cccc2c1OCCO2 [Entry 21, (2,3-dihydrobenzo-[b][1,4]dioxin-5-yl)methanamine] | 0.00 | 12.36

Row | Structure (SMILES) | SSAO activity (% relative to benzylamine) Human (Human SSAO) [%] | SSAO activity (% relative to benzylamine) Mouse (mouse SSAO) [%]
19 | COc1ccc(CN)cc1 [Entry 22, (4-methoxyphenyl)methanamine] | 0.00 | 4.56
20 | NCc1ccccc1F [Entry 23, (2-fluorophenyl)methanamine] | 1.3 | 44.0
21 | COc1cc(CN)cc(OC)c1 [Entry 24, (3,5-dimethoxyphenyl)methanamine] | 0.00 | 0.75
22 | NCc1ccc(CN)cc1 [Entry 25, 1,4-phenylene dimethanamine] | 0.00 | 0.00
23 | NCc1cccc(CN)c1 [Entry 26, 1,3-phenylene dimethanamine] | 0.00 | 0.00
24 | NCc1ccc(C(=O)O)cc1 [Entry 27, 4-(aminomethyl)benzoic acid] | 0.00 | 4.06
25 | COc1ccc(CN)c2ccccc12 [Entry 28, (4-methoxynaphthalen-1-yl)methanamine] | 0.70 | 0.00
26 | NCc1c(O)ccc2ccccc12 [Entry 29, 1-(aminomethyl)naphthalen-2-ol] | 0.00 | 0.00
27 | CC(N)c1cccc2ccccc12 (stereo not shown) [Entry 30, 1-(naphthalen-1-yl)ethanamine] | 11.00 | 0.00
28 | NCCc1ccccc1 [Entry 41, 2-phenylethanamine] | 8.20 | 6.80
29 | NCCCc1ccccc1 [Entry 42, 3-phenylpropan-1-amine] | 60.30 | 44.80
30 | NCCOc1ccccc1 [Entry 43, 2-phenoxyethanamine] | 17.93 | 14.60
31 | NCCCCc1ccccc1 [Entry 44, 4-phenylbutan-1-amine] | 147.63 | 61.18
32 | COc1cccc2[nH]cc(CN)c12 [Entry 45, (4-methoxy-1H-indol-3-yl)methanamine] | 0.00 | 5.54
33 | NCCc1ccc(F)cc1 [Entry 46, 2-(4-fluorophenyl)ethanamine] | 16.30 | 59.80
34 | NCCc1ccc(O)c(O)c1 [Entry 47, 4-(2-aminoethyl)benzene-1,2-diol] | 0.00 | 0.00
35 | COc1ccc(CCN)cc1OC [Entry 48, 2-(3,4-dimethoxyphenyl)ethanamine] | 0.00 | 3.80
